The text below walks through data of patent US20190119332A1, “METHODS TO PURIFY AVIDIN-LIKE PROTEINS AND FUSION PROTEINS THEREOF” (THE CHILDREN'S MEDICAL CENTER CORPORATION, priority 2016, published 2019).

In experiment [1] the test system is rhizavidin. Kind of experiment: affinity column purification of rhizavidin with immobilized ligand. On the set-up: species or system Rhizobium etli. The conditions noted are these: data not shown. How it is done:
The following steps can be followed to prepare a LA-matrix for use in the methods as disclosed herein: • i. Resuspend CARBOXYLINK™ Coupling Resin (Life technologies, 20266) and aliquot 1 ml of suspended resin into an empty column, e.g., a bio-rad Econo-Pac Chromatography Column, allow resin to settle. Wash the resin with approx.20 ml of water and add 10 ml of PBS (×1) to equilibrate resin. • ii. Prepare a 100 mg/ml solution of Sulfo-NHS by dissolving 50 mg of Sulfo-NHS (N-hydroxysulfosuccinimide) in 0.5 ml of 0.1M MES buffer. • iii. Prepare a Sulfo-NHS/LA mixture by adding 0.25 ml of ethanol and 0.25 ml of 50 mg/ml LA stock solution (12.5 mg of LA) to 0.5 ml of Sulfo-NHS (100 mg/ml). • iv. To cross link the LA to the resin, dissolve 25 mg of EDC in 0.75 ml of coupling buffer and immediately add to Sulfo-NHS/LA mixture. Incubate the EDC/Sulfo-NHS/LA mixture with rotation for 30 min RT. Adjust the pH of the EDC/Sulfo-NHS/LA mixture to pH 7.0 by adding 1M Na2HPO4 (pH11) (approx. 0.5 ml of 1M Na2HPO4) • v. Resuspend the equilibrated CARBOXYLINK™ Coupling Resin with EDC/Sulfo-NHS/LA mixture and transfer everything to a 5 ml tube, incubate with rotation overnight RT. • vi. Transfer resin into an empty column, allow LA resin/LA matrix to settle. Wash resin with the following reagents in the following order; (i) 20 ml of wash buffer, (ii) 20 ml of H2O, (iii) Wash resin comprising 5 ml of 20% ethanol. Store LA resin/LA matrix in 20% ethanol until use.
The following steps can be followed in the methods as disclosed herein to purify a biotin-binding protein, e.g., rhizavidin or a rhiavidin fusion protein using a LA-matrix from a bacterial suspension expressing the rhizavidin or a rhiavidin fusion protein: • v. Collect E. coli culture by centrifugation, discard supernatant, and resuspend pelleted cells with a lysis buffer (20 mM Tris, 1M NaCl, pH8.0) containing DNase, proteinase inhibitors and 10 mM MgCl2. […] Transfer resin into an empty column after incubation and wash the LA resin with wash buffer (50% ethanol, 20 mM Tris, 1M NaCl) until no protein is detected in flow through • ix. […]

Experiment [2] deals with rhizavidin. Kind of experiment: binding of rhizavidin to ligands assessed for affinity chromatography. On the set-up: species or system Rhizobium etli. The conditions noted are these: for binding to rhizavidin: ligand assessed for affinity chromatography.
For another experiment, the target named is streptavidin (Streptomyces avidinii, UniProt P22629). The conditions noted are these: cited from earlier work.
Sequence of streptavidin (P22629 25-183): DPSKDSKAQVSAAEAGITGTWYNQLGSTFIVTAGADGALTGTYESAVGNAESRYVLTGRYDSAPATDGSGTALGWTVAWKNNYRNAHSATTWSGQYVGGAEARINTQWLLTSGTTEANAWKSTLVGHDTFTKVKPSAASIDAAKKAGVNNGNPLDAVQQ

Take `O=C(O)c1ccccc1N=Nc1ccc(O)cc1` [HABA, hydrooxyazobenzene-benzoic acid]: in the experiment with rhizavidin [1], the “effectiveness of column comprising the ligand at purifying rhizavidin” value (from here on “effectiveness”) is listed as “not effective”. Moreover, the binding to rhizavidin entry in the experiment with rhizavidin [2] is recorded as “did not bind”. The binding to streptavidin result at streptavidin is on record as “bind with high affinity”.
On to `Cc1cc(N=Nc2ccccc2C(=O)O)cc(C)c1O` [dimethyl-HABA], for which the “effectiveness” value in the experiment with rhizavidin [1] was “not effective”. Moreover, the binding to rhizavidin entry with rhizavidin [2] is on record as “did not bind”. Also, at streptavidin, the binding to streptavidin entry is given as “bind with high affinity”.
Turning to `O=C(O)CCCCC1CCSS1` (stereo not drawn) [lipoic acid, 1,2-dithione-3-pentanoic acid], in the experiment with rhizavidin [1], the “effectiveness” value is on record as “effective”. For the same molecule, in the experiment with rhizavidin [2], the “affinity of binding to rhizavidin” value is given as “micromolar affinity” and the “affinity of rhizavidin for lipoic acid compared with polyhistadine tag for nickel” value is “approximately the same as histadine”.
